Experimental data published in paper PMC4624405 (Chemistry & biology, 2015).
Like-named read-outs stand apart in the source and are kept apart here.

What was measured:
[1] = molecular target: T1, sterol C24-methyltransferase (TbSMT) (Trypanosoma brucei, UniProt Q4FKJ2); assay type: biochemical
T1 sequence (Q4FKJ2 1-359): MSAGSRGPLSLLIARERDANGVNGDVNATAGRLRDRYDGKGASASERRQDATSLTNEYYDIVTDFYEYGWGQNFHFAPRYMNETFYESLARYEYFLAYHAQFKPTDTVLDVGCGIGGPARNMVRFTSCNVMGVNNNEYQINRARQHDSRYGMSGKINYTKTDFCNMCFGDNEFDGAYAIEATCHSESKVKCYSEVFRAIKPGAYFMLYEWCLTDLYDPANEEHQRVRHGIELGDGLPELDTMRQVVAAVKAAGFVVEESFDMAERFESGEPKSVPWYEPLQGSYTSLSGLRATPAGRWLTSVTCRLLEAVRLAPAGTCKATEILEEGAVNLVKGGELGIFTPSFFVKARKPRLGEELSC

[2] = molecular target: T1, sterol C24-methyltransferase (TbSMT); assay: recombinant enzyme activity assay, Lineweaver-Burk inhibition; assay type: biochemical

SMILES | Ki [1] [µM] | Ki [2] [µM]
CC(=CCC[C@@H](C)[C@H]1CC[C@H]2C3=CC=C4C[C@@H](O)CC[C@]4(C)[C@H]3CC[C@]12C)CF [26FCT, 26-fluorocholesta-5,7,24-trienol] | 75 | 
CC(=CCC[C@@H](C)[C@H]1CC[C@@]2(C)C3=C(CC[C@]12C)[C@@]1(C)CC[C@H](O)C(C)(C)[C@@H]1CC3)CF [26FL, 26-fluorolanosterol] |  | 85
